Assay results published in US9617311B2, “Use of PEDF-derived polypeptides for promoting stem cells proliferation and wound healing” (Mackay Memorial Hospital, priority 2011, dated 2017).

Columns and labels:
[1] = system: limbal epithelial stem cells (LSCs); assay: In vitro LSC proliferation, BrdU pulse-labeling with ΔNp63α immunostaining; type: cell-based, New Zealand white rabbits; settings: BrdU 2 hours; for percentage of BrdU and ΔNp63α-double positive cells per total ΔNp63α-positive cells: 25 nM peptide or 4.5 nM PEDF in medium, control medium 3.0±0.5%, mean±SEM
From the text: LSCs were isolated from six-month-old New Zealand white rabbits and used for cell-suspension culture in accordance with the method previously described by Cheng et al. (The growth-promoting effect of KGF on limbal epithelial cells is mediated by upregulation of DeltaNp63alpha through the p38 pathway. J Cell Sci 2009; 122 (Pt 24): 4473-4480) and Wang et al. (Importin 13 serves as a potential marker for corneal epithelial progenitor cells. Stem Cells 2009; 27: 2516-2526) with a slight modification. Rabbit limbal tissues were washed in PBS containing 100 U/ml penicillin and 50 μg/ml gentamicin. After carefully removing the iris, and excessive sclera, the limbal rings were exposed to dispase II (1.2 IU/ml in Hanks' balanced salt solution free of Mg^2+ and Ca^2+) at 4° C. for 16 hours. The loosened epithelial sheets were removed with a cell scraper and separated into single cells by enzymatic digestion (0.05% trypsin, and 0.01% EDTA) for 15 min at 37° C. with gentle shaking and transferred to a stop medium (9 ml of HEPES-buffered DMEM containing 10% FBS). Cells were then collected by centrifugation (400×g for 5 min).
About 1×10^5 cells were seeded on each wells of a 6-well plate and incubated in a DMEM/Ham's F-12 basal medium (10 mM HEPES, 5 ng/ml human EGF, 1% SITE liquid medium, antibiotic-antimicotic solutions, 0.5% DMSO and 0.5 μg/ml hydrocortisone) supplemented with 10% FBS for 2 days, and then shifted to a basal medium or basal medium containing 4.5 nM PEDF, 25 nM 39-mer, 25 nM 34-mer, 25 nM 29-mer, 25 nM 25-mer, 25 nM 20-mer, 25 nM 18-mer, 25 nM Mo 29-mer or 25-nM Mo 20-mer. The cells were continued cultivated at 37° C. under 5% CO2 for another 3 days until they reached confluence (passage 0). LSCs were co-cultured with MMC-treated NIH-3T3 fibroblast feeder cells located within trans-well (0.4 μm pore, BD Biosciences, Bedford, Mass.). For passage purpose, near-confluent cells were harvested again by enzymatic treatment (i.e., 0.25% trypsin), and then 1×10^5 subcultured cells were further cultured in the respective medium, and proliferative capacity of cells was compared every 4 days after continuously culture-subculture (passage).
De-paraffinized tissue sections or 4% paraformaldehyde-fixed LSCs were blocked with 10% goat serum and 5% BSA in PBST (PBS containing 0.1% Tween-20) for 1 hour. Staining was done using primary antibodies against ΔNp63α (1:150 dilution), BrdU (1:250 dilution), and keratin-3 (1:250 dilution) at 37° C. for 2 hours, followed by incubation with the appropriate rhodamine- or FITC-conjugated donkey IgG (1:500 dilution) for 1 hour at RT. Nuclei were identified by counterstaining with Hoechst 33258 for 7 minutes. Images were captured using a Zeiss epifluorescence microscope with a CCD camera and photographs were taken by using the Axiovert software.
2×10^5 limbal cells (the 1st passage) were seeded at a slide coated with FNC COATING MIX® solution (Athena Enzyme Systems, Baltimore, Md.) and incubated with a culture medium for one day. BrdU (final, 10 μM) was added to the culture for 2 hours. After being fixed with 4% paraformaldehyde, cells were exposed to cold methanol for 2 minutes, and then treated with 1 N HCl at RT for 1 hour before performing immunofluorescence. For animal study, BrdU was reconstituted in DMSO as stock (80 mM). 10 μl of BrdU mixed with 90 μl of PBS was intraperitoneally injected into mouse 3 hours prior to euthanasia. DNA synthesis was assessed by BrdU labeling with anti-BrdU antibodies.

[2] = system: full-thickness skin excisional wounds; assay: Skin wound healing in mice, wound area from photographs; type: in vivo, C57L/B6 mice; settings: for residual epithelial defects, percentage of the original wound: 25 μl skin ointment with 50 μM peptide once daily
Method: FIG. 6A provides photographs and FIG. 6B is a histogram, and together, they illustrate the skin (epithelial) wound-healing of mice from treatment groups according to another example of the present disclosure. 4 mm punch wounds were made on the dorsal side of C57/B6 mice. Skin ointment was treated once a day. Photographs of the wounded skin and ruler (scale 10 mm) were captured with a CCD camera (Olympus). The residual epithelial defect (%) is presented as percentage of the original wound. Data are shown as mean±SE.
To perform full-thickness skin excision, 8- to 10-week-old C57L/B6 mice were respectively anesthetized by an intraperitoneal injection of a mixture of zoletil (6 mg/kg) and xylazine (3 mg/kg). Two full-thickness skin excisional wounds, 4 mm in diameter were made on either side of the dorsal midline using Sklar Tru-Punch disposable biopsy punch (Sklar, West Chester, Pa., USA). In each treatment group (n=6), the skin wound was treated with 25 μl skin ointment (containing 50 μM synthetic peptide and 0.006 μl DMSO vehicle) once daily after the skin scraping. In the control group (n=6), skin wound was treated with 25 μl of skin ointment with equal concentration of DMSO. Each gram of the above skin ointment contains 5 mg neomycin sulfate and 12.5 mg Bacitracin Zinc. Wounds were left uncovered and harvested 4 and 7 days after injury. Mice were housed individually during the healing period.
The area of wound was quantified from the photographs using a computer-assisted image analyzer (Adobe Photoshop CS3 10.0) and was calculated as the percentage of residual epithelial defect at each time point/initial wound area.

[3] = day 4 post-injury, control 61.5±3.2%
[4] = day 7 post-injury, control 44.5±5.3%

## SLGAEHRTESVIHRALYYDLITNPDIHST [Mo 29-mer, synthetic peptide derived from mouse PEDF]
[1]
  percentage of BrdU and ΔNp63α-double positive cells per total ΔNp63α-positive cells: 27.1±1.8%
[2]; [3]
  residual epithelial defects, percentage of the original wound: 47.8±4.3%
[2]; [4]
  residual epithelial defects, percentage of the original wound: 16.8±6.6%

## SLGAEHRTESVIHRALYYDL [Mo 20-mer, synthetic peptide derived from mouse PEDF]
[1]
  percentage of BrdU and ΔNp63α-double positive cells per total ΔNp63α-positive cells: 26.3±2.2%
[2]; [3]
  residual epithelial defects, percentage of the original wound: 49.6±3.9%
[2]; [4]
  residual epithelial defects, percentage of the original wound: 20.3±7.5%

## EQRTESIIHRALYYDLIS [18-mer]
[1]; 25 nM peptide in medium
  enhanced LSC proliferation versus control medium: enhanced proliferation was not observed
[2]; days 4 and 7, 50 μM peptide skin ointment once daily
  promotion of skin wound healing: not able to promote wound healing

## SLGAEQRTESIIHRALYYDLISSPDIHGT [29-mer, short synthetic PEDF peptide derived from the 39-mer]
[1]
  percentage of BrdU and ΔNp63α-double positive cells per total ΔNp63α-positive cells: 33.9±2.6%
[2]; [3]
  residual epithelial defects, percentage of the original wound: 46.3±3.7%
[2]; [4]
  residual epithelial defects, percentage of the original wound: 18.2±4.3%

## SLGAEQRTESIIHRALYYDL [20-mer, synthetic peptide identical to residues 11-30 of the 39-mer]
[1]
  percentage of BrdU and ΔNp63α-double positive cells per total ΔNp63α-positive cells: 31.8±1.7%
[2]; [3]
  residual epithelial defects, percentage of the original wound: 50.1±3.8%
[2]; [4]
  residual epithelial defects, percentage of the original wound: 20.0±4.9%
